According to patent US4230719A, “Novel 2-[4-(3-methyl-2-thienyl)phenyl]propionic acid and pharmaceutically acceptable salt thereof and method for treating symptoms of inflammation and pain” (Toyama Chemical Co., Ltd., priority 1977, dated 1980):

What was measured:
Vascular permeability [1] = experiment: Vascular permeability in mice (Whittle's method); type: in vivo, mouse (ddY strain, male); conditions: for Inhibition: dye leakage; for ED30: po, mouse, read-out: ED30
Protocol: (i) Vascular permeability in mice (Whittle's method)
The test compound was orally administered to each ddY strain male mouse (weighing each about 20 g). After 20 minutes, 0.1 ml/10 g of a 4%(Wt/V) solution of Pontamine Sky Blue in physiological saline was intravenously injected and 10 minutes thereafter 0.1 ml/10 g of a 0.7%(V/V) solution of acetic acid in physiological saline was injected intraperitoneally. After 30 minutes, the mice were killed by suffocation with chloroform. After immediate laparotomy, the dye leaked into the peritoneal cavity was washed out with distilled water. The washings were made up with water to 30 ml and the absorbance at 620 mμ was measured. The amount of leaked dye per 20 g of mouse weight was compared.

[2] = test system: pain threshold (brewer's yeast, hind paw); experiment: Analgesic activity, Randall-Selitto method in rat; type: in vivo, rat (Wistar strain, male); conditions: for Inhibition: 100% = pain threshold raised by 150 g; for ED50: po, rat, read-out: ED50
Protocol: (ii) Randall-Selitto method in rat
After one hour, the test compound was orally administered. One hour thereafter, the pain threshold value was measured four times at a time interval of one hour. The mean value of four values obtained was taken as the pain threshold value of each group of rats. The activity of the drug was assumed to be 100% when the pain threshold value was raised by 150 g.

Adjuvant arthritis = experiment: Adjuvant arthritis; type: in vivo, rat (Sprague-Dawley strain, male); conditions: 1 mg/kg p.o./day, mean during one week
Protocol: A suspension containing 6 mg/ml of killed and dried Mycobacterium butyricum in liquid paraffin was subcutaneously injected into the subplantar region of the left hind paw of Sprague-Dawley strain male rats (weighing 180 to 200 g) in a proportion of 0.1 ml/rat. After 14 days, the rats having inflammatory paws of similar volumes were selected and the test compound was orally administered to the rats repeatedly at the rate shown in Table 4 during one week and the mean inhibitory percent of swelling during one week was determined.

Vascular permeability [3] = experiment: Vascular permeability in rat (Whittle's method); type: in vivo, rat (Wistar strain, male); conditions: for ED30: po, rat, read-out: ED30
Protocol: (ii) Vascular permeability in rat (Whittle's method)
The test compound was orally administered to each Wistar strain male rat (weighing about 150 g) which had been fasted overnight. After 55 minutes, 0.5 ml of a 0.5% Evans Blue solution was intravenously injected. Five minutes thereafter, 0.2 ml/100 g of a 3%(V/V) acetic acid solution was intraperitoneally injected. After 60 minutes from the injection of the acetic acid solution, the rats were killed by suffocation with chloroform. After immediate laparotomy, the dye leaked into the peritoneal cavity was washed out with physiological saline. The washings were made up with the saline to 30 ml and the absorbance at 640 mμ was measured to examine the effect of the test compounds by comparing the amounts of leaked dye per rat with one another.

in vivo = conditions: rat, po
[4] = test system: gastric mucosa and intestine; experiment: Test for ulcerogenic action (ii), three doses, rats on normal meal; type: in vivo, rat (Donryu strain, male); set-up: scale not given here
Protocol: (ii) In the same manner as in (i), the test compound was orally administered to each Donryu strain male rat (weighing about 180 g; 10 rats per group) which had received normal meal. The second dose was administered after 8 hours and the third dose after 16 hours from the second dose. Five hours after the last administration, the rats were treated in the same manner as in (i). The gastric mucosa injury and the intestinal injury were scored in the same manner as in (i).

[5] = Test for ulcerogenic action (i), single dose, fasted rats; type: in vivo; conditions: rat, in vivo, po
Protocol: (§1) (4) Test for ulcerogenic action
(§2) After 18 hours, the rats were killed by suffocation with chloroform and their stomachs were excised. After having been filled with 5 ml of 1% formalin to fix the gastric mucosa, each stomach was incised along the greater curvature to inspect grossly the extent of injury of the gastric mucosa. The extent of injury was scored as follows: 0, no lesion; 1, petechia or erosion; 2, 1-5 small ulcers; 3, many small ulcers; 4, many large ulcers or perforation. The intestinal injury was evaluated based on the incidence of erosion.

[6] = test system: gastric mucosa and intestine; experiment: as above; type: in vivo; conditions: for Gastric glandular score: 18 hours, score 0 (no lesion) to 4 (many large ulcers or perforation)
Protocol: as §1, §2

[7] = test system: Carrageenin-induced edema; experiment: Carrageenin-induced edema; type: in vivo, rat (Donryu strain, male); conditions: Rattus norvegicus, po, mean in 5 hours, read-out: Inhibitory percent of swelling; for inhibition in vivo at 1 mg/kg: 1 mg/kg p.o.; for inhibition in vivo at 5 mg/kg: 5 mg/kg p.o.
Protocol: (iii) Carrageenin-induced edema
Each of the 6 Donryu strain male rats per group (each weighing about 140 g), which had been fasted overnight, was orally loaded with 4 ml of water and, after 30 minutes, the test compound was orally administered thereto. Thirty minutes thereafter, a 1%(Wt/V) solution of carrageenin in physiological saline was subcutaneously injected into the subplantar region of the left hind paw. At a time interval of one hour, starting from the end of the first hour till the end of the fifth hour after injection of carrageenin, the paw volume was measured by means of a manometer and pressure transducer. By comparison with the percent increase in swelling of the control group of rats to which a 0.5%(V/V) solution of Tween 80 had been administered, the mean inhibitory percent in 5 hours of swelling was calculated by the following equation: [formula]

[8] = test system: phenylbenzoquinone writhing; experiment: Analgesic activity, phenylbenzoquinone method in mouse; type: in vivo, mouse (ddY strain, male); conditions: for Frequency of writhing, mean ± S.E.: during 10 minutes; for inhibition in vivo at 10 mg/kg / inhibition in vivo at 20 mg/kg / inhibition in vivo at 40 mg/kg: Mus musculus, 10 min, writhing; for inhibition in vivo at 10 mg/kg / inhibition in vivo at 20 mg/kg / inhibition in vivo at 40 mg/kg / ED50: po; for inhibition in vivo at 10 mg/kg / inhibition in vivo at 20 mg/kg: read-out: Inhibition; for ED50: mouse, read-out: ED50
Protocol: (i) Phenylbenzoquinone method in mouse
The test compound was orally administered to each ddY strain male mouse (weighing 22±2 g; 8 mice per group). […] The frequency of writhing during 10 minutes from 5-minutes after the injection of phenylbenzoquinone was measured and compared with that of a control group to which a 0.5% Tween 80 solution was administered. The percent inhibition was calculated by the following equation: [formula]

Glomerulonephritis = experiment: Action on glomerulonephritis in rats; type: in vivo, rat (Wistar strain, male); conditions: 10 mg/kg p.o./day
Source text: (ii) Action on glomerulonephritis in rats
Glomerulonephritis was induced in Wistar strain male rats (each weighing 180 to 200 g) by use of an anti-rat's kidney rabbit serum obtained from the serum of a rabbit sensitized with a homogenate of rat's kidney cortice. To the rat producing stable proteinuria was orally administered the test compound repeatedly at the rate shown in Table 12 for 2 weeks, and the inhibition of uric protein was examined.

Row | SMILES | Dye leakage (P.S.B.) mean ± S.E. (Vascular permeability [1]; 5 mg/kg p.o.) | Dye leakage (P.S.B.) mean ± S.E. (Vascular permeability [1]; 10 mg/kg p.o.) | Inhibition (Vascular permeability [1]; 5 mg/kg p.o.) | Inhibition (Vascular permeability [1]; 10 mg/kg p.o.) | ED30 (Vascular permeability [1]) | Inhibition ([2]; 1 mg/kg p.o.) | Inhibition ([2]; 5 mg/kg p.o.) | Inhibition ([2]; 25 mg/kg p.o.) | ED50 [2] | Inhibitory percent of swelling (Adjuvant arthritis) | Inhibition (Vascular permeability [3]; 1 mg/kg p.o.) | Inhibition (Vascular permeability [3]; 5 mg/kg p.o.) | ED30 (Vascular permeability [3]) | LD50 (in vivo) | Score, intestine, mean ± S.E. ([4]; 5 mg/kg × 3 p.o.) | Score, stomach, mean ± S.E. ([4]; 5 mg/kg × 3 p.o.) | Score, intestine, mean ± S.E. ([4]; 15 mg/kg × 3 p.o.) | Score, stomach, mean ± S.E. ([4]; 15 mg/kg × 3 p.o.) | TD50 at 18 h [5] | Intestine erosion incidence ([6]; 10 mg/kg p.o.) | further results
1 | CC(C(=O)O)c1ccc(-c2cccs2)cc1 (stereo not shown) [Compound C2] | 314.7 ± 31.3 μg/20g | 264.8 ± 21.8 μg/20g | 1.9% | 17.5% | 19.8 mg/kg | 33.8% | 35.2% | 58.5% | 14.5 mg/kg | 7.2% | 16.4% | 47.3% | 2.1 mg/kg | 115 mg/kg | 1.07 ± 0.30 | 1.21 ± 0.18 | 1.17 ± 0.21 | 2.33 ± 0.31 | 25 mg/kg | 1/7 | Gastric glandular score ([6]; 10 mg/kg p.o.): 1.11 ± 0.21; Intestine erosion incidence ([6]; 30 mg/kg p.o.): 1/7; Gastric glandular score ([6]; 30 mg/kg p.o.): 1.89 ± 0.24; Intestine erosion incidence ([6]; 100 mg/kg p.o.): 6/7; Gastric glandular score ([6]; 100 mg/kg p.o.): 3.61 ± 0.26; Death incidence ([6]; rat, in vivo): 3/7; inhibition in vivo at 1 mg/kg [7]: 11.8%; inhibition in vivo at 5 mg/kg [7]: 32.9%; Frequency of writhing, mean ± S.E. ([8]; 10 mg/kg p.o.): 22.3 ± 1.9; Frequency of writhing, mean ± S.E. ([8]; 20 mg/kg p.o.): 14.6 ± 3.1; Frequency of writhing, mean ± S.E. ([8]; 40 mg/kg p.o.): 11.1 ± 2.4; inhibition in vivo at 10 mg/kg ([8]; 10 mg/kg p.o.): 5.5%; inhibition in vivo at 20 mg/kg ([8]; 20 mg/kg p.o.): 38.1%; inhibition in vivo at 40 mg/kg ([8]; 40 mg/kg p.o.): 53%; ED50 [8]: 33 mg/kg
2 | CC(C(=O)O)c1ccc(-c2cccs2)c(Cl)c1 (stereo not shown) [Compound C3] | 289.3 ± 21.4 μg/20g | 254.2 ± 10.3 μg/20g | 9.8% | 20.8% | 20.5 mg/kg | 14.4% | 32.5% | 56.6% | 16.5 mg/kg | 8.1% | 22.2% | 44.6% | 1.7 mg/kg | 270 mg/kg | 0.83 ± 0.21 | 1.67 ± 0.31 | 1.50 ± 0.38 | 2.36 ± 0.14 | 27 mg/kg | 0/7 | Dye leakage (P.S.B.) mean ± S.E. (Vascular permeability [1]; 20 mg/kg p.o.): 226.9 ± 15.3 μg/20g; Inhibition (Vascular permeability [1]; 20 mg/kg p.o.): 29.3%; Gastric glandular score ([6]; 10 mg/kg p.o.): 1.18 ± 0.30; Intestine erosion incidence ([6]; 30 mg/kg p.o.): 0/7; Gastric glandular score ([6]; 30 mg/kg p.o.): 1.96 ± 0.42; Intestine erosion incidence ([6]; 100 mg/kg p.o.): 4/7; Gastric glandular score ([6]; 100 mg/kg p.o.): 3.39 ± 0.30; inhibition in vivo at 1 mg/kg [7]: 15.2%; inhibition in vivo at 5 mg/kg [7]: 42%; Frequency of writhing, mean ± S.E. ([8]; 10 mg/kg p.o.): 23.1 ± 3.5; Frequency of writhing, mean ± S.E. ([8]; 20 mg/kg p.o.): 19.4 ± 3.7; Frequency of writhing, mean ± S.E. ([8]; 40 mg/kg p.o.): 12.4 ± 3.0; inhibition in vivo at 10 mg/kg ([8]; 10 mg/kg p.o.): 2.1%; inhibition in vivo at 20 mg/kg ([8]; 20 mg/kg p.o.): 17.8%; inhibition in vivo at 40 mg/kg ([8]; 40 mg/kg p.o.): 47.5%; ED50 [8]: 50 mg/kg
3 | CC(=O)OCC(=O)[C@@]1(O)CC[C@H]2[C@@H]3CCC4=CC(=O)CC[C@]4(C)[C@H]3[C@@H](O)C[C@@]21C [Hydrocortisone acetate] | – | – | – | – | – | – | – | – | – | – | – | – | – | – | – | – | – | – | – | – | Inhibition of uric protein (Glomerulonephritis; 7th day): 20.0%; Inhibition of uric protein (Glomerulonephritis; 14th day): 29.0%
